“Also recorded” adds a separate entry of the source.
Assays:
[1] = MOPC uptake into and desorption from single vesicles, micropipet lysolipid exchange; assay type: physicochemical
Procedure: I. du Pont de Nemours and Co.) disc and the chloroform evaporated under nitrogen. Final traces of solvent were removed by placing the disc in an evacuated desiccator for 2 hours (Needham and Nunn, Biophys. J. 58:997 (1990)). The so-formed dried lipid layers were prehydrated with water vapor in a nitrogen carrier gas and then fully hydrated overnight in a sucrose solution at 40° C. […] Both the pure SOPC and SOPC/PEG(750)-lipid vesicles were re-suspended in a glucose solution of 205 mOsm for use in micromanipulation experiments as described below. […] The microscope images were recorded using a COHU CCD camera. […] The pipettes were connected to a manometer system that allowed the applied pressures to be changed and measured to an accuracy of 2 microatmospheres. The micropipet suction pressures were measured by differential transducer (Validyne DP15-24). The measured pressures together with real time were multiplexed on the recorded images with a multiplexer (Model 401, Vista Electronics, La Mesa, Calif., USA). The recorded images were used to measure the change of the vesicle projection length inside the holding pipet during uptake and desorption of lysolecithin, and to calculate the membrane tension. […] The vesicle projection length (Lp) inside the holding pipet is measured and the effects of various solutions on the Lp of the test vesicle are compared. […]

[2] = Critical micelle concentration by DPH fluorescence; assay type: physicochemical
Procedure: The critical micelle concentration (CMC) of the lysolipid was measured independently by DPH fluorescence following the method in Chattopadhyay and London, Analytical Biochem. 139:408 (1984). Briefly, a series of solutions containing increasing concentrations of MOPC in the range 10^-7 M to 10^-4 M were prepared. Diphenyl hexatriene (DPH), a lipid soluble fluorescent dye, was added to these samples and the intensity of fluorescence was measured by spectrofluorimeter at absorption and emission wavelengths of 358 nm and 430 nm, respectively. The CMC was determined by plotting the fluorescence intensity (in arbitrary units) verses concentration of MOPC solutions, made up by diluting a 100 mM stock solution of MOPC (solubilized initially by Tetrahydrofuran) in water (Chattopadhyay and London, Analytical Biochem. 139:408 (1984)).
This second trial used SOPC +20 mol % PEG2000 DSPE (0.2 mg/ml, 2×10^-4 M total lipid) for the lipid vesicles and 1 mM PEG2000 DSPE as micellar suspension. […] It was as though the PEG-lipids at this high concentration had formed a gel inside the vesicles.

[3] = Mechanical tests of bilayer tensile strength; assay type: physicochemical
Procedure: (3) Mechanical tests of bilayer tensile strength were carried out on vesicles that contained 0-20 mol % PEG(750)-lipid as a function of MOPC uptake.
As the bilayer takes up more and more of a water-soluble second component (e.g., bile acid or MOPC) it is expected that it will become weaker and softer (Evans et al., In Bile Acids in Gasteroenterology Basic and Clinical Advances, Hoffman et al. (Eds.) Kluwer Academic Publishers, Doderecht, Boston and London, pp. 59-68 (1994); Needham and Zhelev, Ann. Biomed. Egr. 23:287 (1995); Zhelev, Biophys J. 71:257 (1996)). To test this model, the tensile rupture strength of vesicles containing various amounts of MOPC at stationary equilibrium was measured. […] To obtain the wide range of MOPC bilayer concentrations, several different lipid, PEG-lipid and MOPC solution concentrations were used (0.1 μM MOPC; 1.0 μM MOPC; 20% PEG-lipid and 100 μM MOPC; 4% PEG-lipid and 100 μM MOPC; and 1% PEG-lipid and 100 μM MOPC) as indicated on the plot next to each data point in FIG. 6.
PEG-lipids were used in some but not all of these vesicle tests. Whether the incorporation of the PEG-lipids (DMPE-(PEG)750) themselves had any effect on the tensile strength of the bilayer vesicles was also investigated. […]

[4] = unmodified egg PC membranes, flow rate 300 μm/s; cited from earlier work
[5] = small angle neutron scattering; cited from earlier work
[6] = TAXOL solubilized in MOPC micelle suspension; assay type: physicochemical
Procedure: For concentrations higher than 50 micromolar, samples were diluted in methanol and the original concentrations were back-calculated.
These components were mixed together in glass culture tubes, and the mixture was dried and kept under vacuum for approximately 15 hours to evaporate the solvent. MOPC was chosen because it has an acyl chain composition that matches the di-chain phospholipid, stearoyloleoylphosphatidylcholine, that was used to form the lipid bilayers of encapsulating liposomes, as discussed below. […] Surfactants with high CMCs (e.g., in the mM range) readily dissolve lipid membranes, even when the membranes contain cholesterol.

[7] = Solubility of TAXOL in water and organic solvents; assay type: physicochemical; conditions: hexane or tetradecane
[8] = cited from earlier work

Compound: CCCCCCCC/C=C\CCCCCCCC(=O)OC[C@@H](O)COP(=O)([O-])OCC[N+](C)(C)C [MOPC, mono-oleoyl-phosphatidylcholine]
- aggregation number in membrane ([1]; above the CMC): about 12
- overall rate of MOPC desorption ([1]; flow rate 400 μm/s, all PEG(750)-lipid concentrations, 5 vesicles): 0.4 ± 0.2 s⁻¹
- critical micelle concentration (CMC) [2]: 3 µM
- tensile rupture strength, effect [3]: decrease with increasing MOPC concentration
- rate of MOPC desorption [4]: 0.2 s⁻¹

Compound: CCCCCCC(=O)OCC(COP(=O)([O-])OCC[N+](C)(C)C)OC(=O)CCCCCC (stereo not drawn) [diheptanoylphosphatidylcholine]
- micelle aggregation number [5]: 27

Compound: CC(=O)O[C@H]1C(=O)[C@@]2(C)[C@H]([C@H](OC(=O)c3ccccc3)[C@]3(O)C[C@H](OC(=O)[C@H](O)[C@@H](NC(=O)c4ccccc4)c4ccccc4)C(C)=C1C3(C)C)[C@]1(OC(C)=O)CO[C@@H]1C[C@@H]2O [TAXOL®]
- stability of TAXOL in micelle suspension ([6]; 0.2 mM TAXOL, 5 mM MOPC): at least 24 hours
- TAXOL solubilized in MOPC micelles ([6]; 5 mM MOPC): up to 1 mM
- increase of solubility limit over aqueous solubility ([6]; 20 mM LPC): about 4000 times
- solubility limit in aqueous media in presence of LPC ([6]; 20 mM LPC): 4 mM
- moles TAXOL solubilized per mole MOPC micelle ([6]; MOPC micelle, data not shown): 1 mole TAXOL per mole MOPC
- solubility in alkanes / hexane [7]: not soluble at all in alkanes such as hexane or tetradecane; also recorded: largely insoluble in hexane
- water solubility of TAXOL [8]: about 1 micromolar

Compound: 1,2-Dimyristoyl-sn-Glycero-3-Phosphoethanolamine -N-PEG-750 [PEG(750)-lipid]
- tensile rupture strength, effect [3]: did not reduce the tensile strength significantly, up to 20 mol % PEG-lipid

Compound: CCCCCC(=O)OCC(COP(=O)([O-])OCC[N+](C)(C)C)OC(=O)CCCCC (stereo not drawn) [dicaproylphosphatidylcholine]
- micelle aggregation number [5]: 19
